Assay results taken from US8008487B2, “Substituted thieno[2,3-D]pyrimidines as fungicides” (priority 2004, dated 2011).
Like-named read-outs stand apart in the source and are kept apart here.

Key:
Type in all cases: in vivo
[1] = tested on: Colletotricum lagenarium; assay: Cucumber Anthracnose (COLLLA), whole-plant fungicide test; conditions: 200 ppm on foliage, one-day protectant test; for pest or weed control at 200 ppm: Cucumis sativus, foliar, 24 h, read-out: COLLLA percent control of disease
[2] = tested on: Cochliobolus sativus; assay: Spot Blotch of Wheat (COCHSA), whole-plant fungicide test; conditions: Bipolaris sorokiniana, foliar, 24 h, 200 ppm on foliage, one-day protectant test, read-out: COCHSA percent control of disease
Protocol: The activity of the compounds as effective fungicides was determined by applying the compounds to plants and observing control of fungal disease. The compounds were formulated at 200 ppm in 10 vol. percent acetone plus 90 vol. percent Triton X water (deionized water 99.99 wt. percent+0.01 wt. percent Triton X100), giving a “formulated test compound.” In a few cases, compounds were formulated at 100, 75 or 8.3 ppm rather than 200 ppm in 10 vol. percent acetone plus 90 vol. percent Triton X water (deionized water 99.99 wt. percent+0.01 wt. percent Triton X100), giving a ‘formulated test compound’. The compounds were tested for ability to control plant diseases in a 1-day protectant test (1DP) or a 2-day curative test (2DC). Formulated test compounds were applied to plants using a turn table sprayer fitted with two opposing air atomization nozzles which delivered approximately 1500 L/ha of spray volume. Plants were inoculated with spores of the fungus the next day (1DP), then incubated in an environment conducive to disease development. In a few cases, the compounds were tested for ability to control plant disease in a two-day curative test. Plants were inoculated with spores of the fungus two days prior to compound application, and incubated in an environment conducive to disease development both before and after compound application (2DC). For all types of tests, disease severity was evaluated 4 to 28 days later, depending on the speed of disease development.
Each pot contained 3-8 seedlings. These plants were sprayed until wet with the formulated test compound. On the following day, the leaves were inoculated with an aqueous spore suspension of Cochliobolus sativus and the plants were kept in high humidity for one to two days to permit spores to germinate and infect the leaf. The plants were then transferred to a greenhouse until disease developed on untreated control plants.
The following table presents the activity of typical compounds of the present invention when evaluated in these experiments. The effectiveness of the test compounds in controlling disease was determined by assessing the severity of disease on treated plants, then converting the severity to percent control based on the level of disease on untreated, inoculated plants.
TABLE 4: Activity of compounds as fungicides. Data are the level at which the given disease was controlled when the given compound was applied to the foliage of the plant at 200 ppm. In a few cases (noted in the table) the compound was applied to the plant at 100, 75 or 8.3 ppm. The plant was inoculated with the fungus one day after treatment. In a few cases (noted in the table) the plant was inoculated with the fungus two days before treatment.

[3] = tested on: Phytophthora infestans; assay: whole plant or invertebrate; conditions: for pest or weed control at 200 ppm: Phytophthora infestans, in Solanum lycopersicum, foliar, 24 h, read-out: PHYTIN percent control of disease, 200 ppm on foliage, tomato, one-day protectant test; for PHYTIN percent control of disease: 200 ppm on foliage, tomato, one-day protectant test
[4] = tested on: Leptosphaeria nodorum; assay: Glume Blotch of Wheat (LEPTNO), whole-plant fungicide test; conditions: for pest or weed control at 200 ppm: foliar, 24 h
[5] = tested on: Puccinia recondita tritici; assay: Leaf Rust of Wheat (PUCCRT), whole-plant fungicide test; conditions: 200 ppm on foliage, one-day protectant test; for pest or weed control at 200 ppm: Puccinia recondita, foliar, 24 h, read-out: PUCCRT percent control of disease
[6] = tested on: Magnaporthe grisea; assay: whole plant or invertebrate; conditions: for pest or weed control at 200 ppm: foliar, read-out: PYRIOR percent control of disease, 200 ppm on foliage, rice, one-day protectant test; for PYRIOR percent control of disease: 200 ppm on foliage, rice, one-day protectant test
[7] = tested on: Erysiphe cichoracaerum; assay: Cucumber Powdery Mildew (ERYSCI), whole-plant fungicide test; conditions: 200 ppm on foliage, one-day protectant test; for pest or weed control at 200 ppm: Erysiphe, foliar, 24 h, read-out: ERYSCI percent control of disease
[8] = tested on: Septoria tritici; assay: Speckled Leaf Blotch of Wheat (SEPTTR), whole-plant fungicide test; conditions: Zymoseptoria tritici, read-out: SEPTTR percent control of disease; for pest or weed control at 100 ppm: 100 ppm (footnote a); for pest or weed control at 75 ppm: 75 ppm (footnote d)
[9] = Parastagonospora nodorum, 200 ppm on foliage, one-day protectant test, read-out: LEPTNO percent control of disease
[10] = Pyricularia oryzae, in Oryza sativa, 24 h

Row | Structure (SMILES) | pest or weed control at 200 ppm [1] | pest or weed control at 200 ppm [2] | pest or weed control at 200 ppm [3] | pest or weed control at 200 ppm [4, 9] | pest or weed control at 200 ppm [5] | pest or weed control at 200 ppm [6, 10] | pest or weed control at 200 ppm [7] | other results
1 | CCOc1csc2ncnc(NC(C)c3ccc(OC)nc3)c12 (stereo not shown) [Compound 46] | 0 to 49% | 0 to 49% | 0 to 49% | 50 to 79% | 80 to 100% | 80 to 100% | 50 to 79% | 
2 | COc1ccc(C(C)Nc2ncnc3sc(Br)cc23)cc1 (stereo not shown) [Compound 48, (6-Bromothieno[2,3-d]pyrimidin-4-yl)-[1-(4-methoxyphenyl)ethyl]amine] | 0 to 49% | 80 to 100% | 0 to 49% | 0 to 49% | 0 to 49% | 0 to 49% | 0 to 49% | 
3 | OCC(Nc1ncnc2scc(Cl)c12)c1ccccc1 (stereo not shown) [Compound 69] |  |  |  |  |  |  |  | COLLLA percent control of disease [1]: * (* is 0-49 percent control of disease); PHYTIN percent control of disease [3]: * (* is 0-49 percent control of disease); pest or weed control at 100 ppm ([4]; Parastagonospora nodorum, 48 h, 100 ppm (footnote a), two-day curative test (footnote b), read-out: LEPTNO percent control of disease): 50 to 79%; PUCCRT percent control of disease [5]: * (* is 0-49 percent control of disease); PYRIOR percent control of disease [6]: * (* is 0-49 percent control of disease); pest or weed control at 100 ppm ([8]; 48 h, two-day curative test (footnote b)): 50 to 79%; ERYSCI percent control of disease [7]: * (* is 0-49 percent control of disease)
4 | CC(=O)COc1ccc(CCNc2ncnc3scc(Cl)c23)cc1 [Compound 6a] | 50 to 79% |  | 80 to 100% | 50 to 79% | 80 to 100% | 80 to 100% | 0 to 49% | pest or weed control at 75 ppm ([8]; 24 h, one-day protectant test): 0 to 49%
5 | COc1ccc(C(C)Nc2ncnc3scc(C#N)c23)cc1 (stereo not shown) [Compound 49, 5-Cyano-N-[1-(4-methoxyphenyl)ethyl]thieno[2,3-d]pyrimidin-4-amine] | 0 to 49% | 50 to 79% | 0 to 49% | 0 to 49% | 80 to 100% | 80 to 100% |  | 
6 | CC(C)(C)OC(=O)Nc1ccc(CCNc2ncnc3scc(Cl)c23)cc1 [Compound 10a, {4-[2-(5-chlorothieno[2,3-d]pyrimidin-4-ylamino)ethyl]phenyl}carbamic Acid t-butyl Ester] | 0 to 49% |  |  | 0 to 49% | 0 to 49% |  | 0 to 49% | pest or weed control at 8.3 ppm ([6]; Pyricularia oryzae, in Oryza sativa, 24 h, read-out: PYRIOR percent control of disease, 8.3 ppm (footnote c), rice, one-day protectant test): 80 to 100%; pest or weed control at 75 ppm ([8]; 24 h, one-day protectant test): 80 to 100%
7 | FC(F)(F)COc1ccc(CCNc2ncnc3scc(Cl)c23)cn1 [Compound 5a] | 50 to 79% |  | 80 to 100% | 80 to 100% | 80 to 100% | 80 to 100% | 80 to 100% | pest or weed control at 100 ppm ([8]; 24 h, one-day protectant test): 80 to 100%
8 | O=C(Oc1ccc(CCNc2ncnc3scc(Cl)c23)cc1)C1(F)C(F)(F)C(F)(F)C(F)(F)C(F)(F)C1(F)F [Compound 9a, 1,2,2,3,3,4,4,5,5,6,6-undecafluoroclohexanecarboxylic Acid 4-[2-(5-chlorothieno[2,3-d]pyrimidin-4-ylamino)ethyl]phenyl Ester] | 0 to 49% |  | 0 to 49% | 0 to 49% | 80 to 100% | 80 to 100% | 0 to 49% | pest or weed control at 75 ppm ([8]; 24 h, one-day protectant test): 80 to 100%
9 | CC(Nc1ncnc2scc(Cl)c12)c1ccc(F)nc1 (stereo not shown) [Compound 40] |  | 50 to 79% |  | 50 to 79% | 80 to 100% |  |  | 
10 | Clc1csc2ncnc(N3CCCC3c3cccnc3)c12 (stereo not shown) [Compound 56] | 0 to 49% | 0 to 49% | 0 to 49% | 0 to 49% | 50 to 79% | 0 to 49% | 0 to 49% | 
11 | CC(Nc1ncnc2scc(Cl)c12)c1cnccn1 (stereo not shown) [Compound 23] | 0 to 49% |  | 0 to 49% | 0 to 49% | 80 to 100% | 50 to 79% | 80 to 100% | 
12 | CCOC(=O)c1csc2ncnc(NC(C)c3ccc(OC)cc3)c12 (stereo not shown) [Compound 50, 5-Carboethoxy-N-[1-(4-methoxyphenyl)ethyl]thieno[2,3-d]pyrimidin-4-amine] | 0 to 49% | 50 to 79% | 0 to 49% | 0 to 49% | 0 to 49% | 0 to 49% |  | 
13 | COc1ccc(C(C)Nc2ncnc3scc(S(C)(=O)=O)c23)cc1 (stereo not shown) [Compound 89, 5-Methanesulfonyl-N-[1-(4-methoxyphenyl)ethyl]thieno[2,3-d]pyrimidin-4-amine] | 0 to 49% |  | 0 to 49% | 0 to 49% | 0 to 49% | 50 to 79% | 0 to 49% | 
14 | CC(Nc1ncnc2scc(Cl)c12)c1cccc2ccccc12 (stereo not shown) [Compound 3a] | 0 to 49% |  | 0 to 49% | 0 to 49% | 80 to 100% | 80 to 100% | 80 to 100% | 
15 | COc1ccc(OCC2CC2C(C)Nc2ncnc3scc(Cl)c23)cc1 (stereo not shown) [Compound 86] | 80 to 100% |  | 0 to 49% | 50 to 79% | 80 to 100% | 80 to 100% | 80 to 100% | 
16 | CC(C)c1ccc(C(C)Nc2ncnc3scc(Cl)c23)cc1 (stereo not shown) [Compound 24] | 0 to 49% |  |  |  |  |  |  | PHYTIN percent control of disease [3]: * (* is 0-49 percent control of disease); LEPTNO percent control of disease ([4]; 200 ppm on foliage, one-day protectant test): * (* is 0-49 percent control of disease); PUCCRT percent control of disease [5]: * (* is 0-49 percent control of disease); PYRIOR percent control of disease [6]: ** (** is 50-79 percent control of disease); ERYSCI percent control of disease [7]: * (* is 0-49 percent control of disease)
17 | CCOc1csc2ncnc(N[C@@H](C)c3ccc(OC)cc3)c12 [Compound 43] | 0 to 49% | 0 to 49% | 0 to 49% | 0 to 49% | 50 to 79% | 50 to 79% |  | 
18 | CC(Nc1ncnc2scc(Cl)c12)c1ccc(N2CCOCC2)cc1 (stereo not shown) [Compound 7a] | 50 to 79% |  | 80 to 100% | 0 to 49% | 80 to 100% | 80 to 100% | 80 to 100% | 
19 | CC(Nc1ncnc2scc(Cl)c12)c1cnc(OCC(F)(F)F)s1 (stereo not shown) [Compound 90] | 0 to 49% |  | 0 to 49% | 50 to 79% | 80 to 100% | 80 to 100% | 80 to 100% | 
